Results as given in US20150297761A1, “PEPTIDIC STRUCTURES INCORPORATING AN AMINO ACID METAL COMPLEX AND APPLICATIONS IN MAGNETIC RESONANCE IMAGING” (THE GENERAL HOSPITAL CORPORATION, priority 2012, published 2015).

Key:
[1] = Ligand challenge, equilibrium constant Kcomp of [Gd(DTPA)(H2O)]2− vs. L; type: physicochemical; details: calculated from literature thermodynamic data
Method: As a means of assessing thermodynamic stability relative to other Gd(III)-complexes, [Gd(CyPic3A)(H2O)2]^− was challenged with DTPA in pH 7.4 25 mM Tris buffer. […] From this information it was possible to deduce equilibrium constants (Kcomp) for the competition reaction described in Equation 5,^31 where L=DTPA and L′=challenging chelator.
(§1) Equilibration of each solution was monitored by LC-MS. Relative distributions of [Gd(CyPic3A)(H2O)2]^− and CyPic3A were determined by integrating the corresponding absorbance traces at 280 nm. […] Kcomp values determined between [Gd(DTPA)(H2O)]^2− and various ligands were determined from conditional formation constants (Kcond)^4 values taken from the literature.^6-16 Direct comparisons were only made between Kcond values determined under identical conditions.

[2] = Ligand challenge, equilibrium constant Kcomp of MS-325 vs. L; type: physicochemical; details: calculated from literature thermodynamic data
Method: as §1

[3] = Zn(II) challenge of the Gd(III) complex of L; literature (ref 11); cited from earlier work
[4] = Kinetic inertness: Zn(II) transmetallation in phosphate buffer, followed by 1/T1; type: physicochemical
Text: Kinetic inertness was also taken into account in the evaluation of potential probes. In this regard, [Gd(CyPic3A)(H2O)2]^− was challenged with 1 equiv. [ZnPO4]^− as a slurry in pH 7.0 phosphate buffer at 310 K (see below). Several clinically utilized Gd(III) complexes have been benchmarked relative to one another in this manner.^37 As Gd(III) replaced by Zn(II) precipitates from the solution as GdPO4, the relaxation rate 1/T1 decreases. In this method, the time required to reach 80% of the initial 1/T1 value was utilized as an index of kinetic inertness.
Modified conditions of Muller and co-workers were used for this experiment.^11,12 Solutions containing 2.5 mM [Gd(CyPic3A)(H2O)2]^− and 2.5 mM Zn(OTf)2 were combined in pH 7.0 phosphate buffer (50 mM) and placed in an incubator shaker set to 310 K. Progress of the transchelation was monitored via the decrease in 1/T1 with time. Prior to measurement, aliquots were placed in small glass inserts and centrifuged to bring all insoluble material to the bottom so as not to interfere with the measurement.

[5] = 310 K, cited from earlier work; for r1 0.47 T 310K: literature (superscript refs); for r1 1.41 T 310K: cell says 1.5 T, literature (ref 17)
[6] = hydration state; literature (superscript refs); cited from earlier work
[7] = Relaxivity of Gd(DOTAla) metallopeptides and reference agents (T1 inversion recovery, 37° C.); type: physicochemical
Method: Main numbers are given per Gd, numbers in parentheses are per molecule values. All numbers were determined at 37° C. using an inversion recovery sequence at concentrations ranging from 0.05 to 0.6 mM/Gd. Table 4 in Example 2 further expands the data of Table 1.
Per Gd relaxivities were determined by measuring T1 at 37° C. using 20, 60, 200, 400 and 500 MHz spectrometers. Relaxivities for MS-325 (with and without the presence of HSA) as a reference compound with a long τR and [Gd(HP-DO3A)(H2O)] as a reference for very short τR were also measured, and all the relaxivity data is tabulated in Table 4, together with results obtained from literature for the compounds with similar estimated τR. […] Additional rigidity through cyclization seems to provide only minor relaxivity increase for the dimeric and trimeric systems (Gd2C2 and Gd3C3).
Measurement of relaxivity. Longitudinal relaxation times T1, were measured on Bruker Minispecs mq20 (0.47 T) and mq60 (1.41 T), a Bruker Bioscan horizontal bore 4.7 T, 9.4 T and 11.7 T Varian NMR spectrometers. T1 was measured by using an inversion recovery method with 10 inversion time values ranging from 0.05×T1 to 5×T1. Relaxivity was calculated from a linear plot of 3 or 4 different concentrations (ranging from 0.01 to 0.5 mM, depending on amount of compound isolated) versus the corresponding inverse relaxation times. All samples were measured at 37° C. using either the internal temperature control of the instrument (0.47, 1.41, 9.4 and 11.7 T) or a warm air blower (4.7 T). MS-325/HSA was prepared in a 4.5% w/v solution of HSA (0.66 mM) in PBS. The MS-325 concentration (in presence of HSA) ranged from 0.05 to 0.15 mM.

[8] = cited from earlier work
HSA = HSA (Homo sapiens, UniProt P02768); experiment: HSA binding by ultrafiltration and ICP-MS (Example 3); type: in vitro ADME; details: 0.1 mM compound, 4.5% (w/v) HSA, 37° C.
Method: In order to measure HSA binding of the complexes, a 0.1 mM solution (determined by ICP-MS) of the corresponding Gd complex in 4.5% w/v HSA was prepared and pipetted into a Ultrafree-MC Microcentrifuge Filter (NMWL 5,000 Da, PLCC, Millipore). The mixture is incubated at 37° C. for 10 minutes and subsequently centrifuged at 12,000 rpm for 15 minutes. Binding is determined by measurement of Gd content in the filtrate by ICP-MS.

[9] = Relaxivity in the absence and presence of HSA (Example 3); type: physicochemical; details: for r1 (20 MHz), absence of HSA / r1 (60 MHz), absence of HSA: absence of HSA (first value of cell); for r1 (20 MHz), presence of HSA / r1 (60 MHz), presence of HSA: presence of HSA (second value of cell)
Method: ^1H and ^13C NMR spectra were recorded on a Varian 500 NMR system equipped with a 5 mm broadband probe. Longitudinal relaxation times, T1, were measured by using the inversion recovery method on Bruker Minispecs. mq20 (20 MHz) and mq60 (60 MHz). Purification via HPLC of intermediates toward Fmoc-DOTAla was performed using method A: Injection of crude mixture onto preparative HPLC on a Rainin, Dynamax (column: 250 mm Kromasil C18) by using A: 0.1% TFA in water, B: 0.1% TFA in MeCN, flow-rate 15 mL/min, 1 over 23 minutes. HPLC purity analysis (both UV and MS detection) was carried out on an Agilent 1100 system (column: Phenomenex Luna, C18(2) 100/2 mm) with UV detection at 220, 254 and 280 nm by using a method B: A gradient of A(0.1% formic acid in water) to 95% B(0.1% formic acid in MeCN), flow-rate 0.8 mL/min, 1 over 15 minutes.

[10] = literature (refs 37, 38), cited from earlier work

HSA, sequence (P02768 25-609): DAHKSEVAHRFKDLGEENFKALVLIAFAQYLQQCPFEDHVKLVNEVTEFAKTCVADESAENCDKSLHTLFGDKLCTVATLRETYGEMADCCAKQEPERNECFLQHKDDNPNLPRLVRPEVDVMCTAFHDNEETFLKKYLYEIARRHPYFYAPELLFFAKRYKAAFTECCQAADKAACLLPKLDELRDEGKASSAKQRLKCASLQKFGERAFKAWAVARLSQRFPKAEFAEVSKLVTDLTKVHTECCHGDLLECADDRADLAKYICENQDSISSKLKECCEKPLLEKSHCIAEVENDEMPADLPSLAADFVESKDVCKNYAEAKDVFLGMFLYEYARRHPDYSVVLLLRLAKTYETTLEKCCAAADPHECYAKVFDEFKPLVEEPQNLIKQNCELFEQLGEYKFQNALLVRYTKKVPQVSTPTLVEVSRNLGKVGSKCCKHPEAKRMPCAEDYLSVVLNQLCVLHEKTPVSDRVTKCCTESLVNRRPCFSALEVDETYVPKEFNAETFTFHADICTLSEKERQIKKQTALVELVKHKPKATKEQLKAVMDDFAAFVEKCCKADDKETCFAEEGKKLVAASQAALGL

Compound | Kcomp [Gd(DTPA)(H2O)]^2- vs. L pH 4 [1] | Kcomp, [Gd(DTPA)(H2O)]^2- vs. L pH 7.4 [1] | Kcomp MS-325 vs. L pH 4 [2] | Kcomp MS-325 vs. L pH 7.4 [2] | % HSA binding (HSA) | r1 (20 MHz), absence of HSA [9] | r1 (20 MHz), presence of HSA [9] | r1 (60 MHz), absence of HSA [9] | r1 (60 MHz), presence of HSA [9] | further results
O=C(O)CN1CCNCCN(CC(=O)O)CCN(CC(=O)O)CC1 [DO3A] | 0.00048^5,6 | 0.0005^5,6 | 0.00046^5,6 | 0.00017^5,6 | – | – | – | – | – | Time to 80% r1 (min) [3]: inert^11
CNC(=O)CN(CCN(CCN(CC(=O)[O-])CC(=O)NC)CC(=O)[O-])CC(=O)[O-].[Gd+3] [[Gd(DTPA-BMA)(H2O)]] | – | – | – | – | – | – | – | – | – | time to 80% of the initial 1/T1 ([4]; 1 equiv. Zn(II), pH 7.0 phosphate buffer, 310 K): 124 min; r1 0.47 T 310K [5]: 3.5^17 mM^−1s^−1; r1 1.41 T 310K [5]: 3.3 (1.5 T)^17 mM^−1s^−1; q [6]: 1^16
O=C([O-])CN(CCN(CC(=O)[O-])C[C@H](COP(=O)([O-])OC1CCC(c2ccccc2)(c2ccccc2)CC1)N(CC(=O)[O-])CC(=O)[O-])CC(=O)[O-].[Gd+3].[H+].[H+].[H+] [MS-325, gadofosveset] | – | – | – | – | – | – | – | – | – | Relaxivity per Gd, 200 MHz ([7]; 200 MHz): 5.7 mM⁻¹ s⁻¹; Relaxivity per Gd, 200 MHz, with HSA ([7]; 200 MHz, presence of 4.5% HSA): 5.0 mM⁻¹ s⁻¹; Relaxivity per Gd, 400 MHz ([7]; 400 MHz (9.4 T)): 4.8 mM⁻¹ s⁻¹; Relaxivity per Gd, 400 MHz, with HSA ([7]; 400 MHz, presence of 4.5% HSA): 4.1 mM⁻¹ s⁻¹; Relaxivity per Gd, 500 MHz ([7]; 500 MHz): 4.7 mM⁻¹ s⁻¹; Relaxivity per Gd, 500 MHz, with HSA ([7]; 500 MHz, presence of 4.5% HSA): 3.7 mM⁻¹ s⁻¹; Relaxivity per Gd, 20 MHz ([8]; 20 MHz, 37° C., literature data (footnotes a, b, d)): 6.8^d mM^−1 s^−1; Relaxivity per Gd, 20 MHz, with HSA ([8]; 20 MHz, 37° C., presence of 4.5% HSA, from ref 22): 42^d mM^−1 s^−1; Relaxivity per Gd, 60 MHz ([8]; 60 MHz, 37° C., literature data (footnotes a, b, d)): 5.4^d mM^−1 s^−1; Relaxivity per Gd, 60 MHz, with HSA ([8]; 60 MHz, 37° C., presence of 4.5% HSA, from ref 22): 23.8^d mM^−1 s^−1; peak molecular relaxivity ([8]; HSA-associated): above 40 mM^−1s^−1; increase in relaxivity once associated with human serum albumin (HSA) ([8]; at low fields): over 8 fold; r1 0.47 T 310K [5]: 5.8^17 mM^−1s^−1; r1 1.41 T 310K [5]: 5.2 (1.5 T)^17 mM^−1s^−1; q [6]: 1^18
O=C(O)CN(CCN(CC(=O)O)C[C@H](COP(=O)(O)OC1CCC(c2ccccc2)(c2ccccc2)CC1)N(CC(=O)O)CC(=O)O)CC(=O)O | 0.57^5 | 2.88^5 | 1 | 1 | – | – | – | – | – | Time to 80% r1 (min) [3]: 3800^11 min
C[C@@H](C(=O)NC(CN1CCN(CC(=O)O)CCN(CC(=O)O)CCN(CC(=O)O)CC1)C(=O)N[C@@H](Cc1cc(I)c(O)c(I)c1)C(=O)O)c1ccccc1 (stereo partly drawn) [Gd (19), 2,2′,2″-(10-(3-(((S)-1-carboxy-2-(4-hydroxy-3,5-diiodophenyl)ethyl)amino)-3-oxo-2-((R)-2-phenylpropanamido)propyl)-1,4,7,10-tetraazacyclododecane-1,4,7-triyl)triacetic acid] | – | – | – | – | 69% | 6.0 mM⁻¹ s⁻¹ | 30.7 mM⁻¹ s⁻¹ | 6.4 mM⁻¹ s⁻¹ | 21.8 mM⁻¹ s⁻¹ | –
O=C(O)CN(CCN(CC(=O)O)CC(=O)O)CCN(CC(=O)O)CC(=O)O [DTPA] | 1 | 1 | 0.58^5 | 0.35^5 | – | – | – | – | – | Time to 80% r1 ([4]; Zn(II) challenge of the Gd(III) complex of L, this work): 383 min
COC(=O)CNC(=O)C(CN1CCN(CC(=O)O)CCN(CC(=O)O)CCN(CC(=O)O)CC1)NC(=O)C(N)Cc1cc(I)c(O)c(I)c1 (centres unmarked) [Gd (7), 2,2′,2″-(10-(2-(2-amino-3-(4-hydroxy-3,5-diiodophenyl)propanamido)-3-((2-methoxy-2-oxoethyl)amino)-3-oxopropyl)-1,4,7,10-tetraazacyclododecane-1,4,7-triyl)triacetic acid] | – | – | – | – | 6% | 4.7 mM⁻¹ s⁻¹ | 7.05 mM⁻¹ s⁻¹ | 3.9 mM⁻¹ s⁻¹ | 6.9 mM⁻¹ s⁻¹ | –
C[C@@H](NC(=O)C(CN1CCN(CC(=O)O)CCN(CC(=O)O)CCN(CC(=O)O)CC1)NC(=O)C(N)Cc1cc(I)c(O)c(I)c1)c1ccccc1 (stereo partly drawn) [Gd (13-R), 2,2′,2″-(10-(2-(2-amino-3-(4-hydroxy-3,5-diiodophenyl)propanamido)-3-oxo-3-(((R)-1-phenylethyl)amino)propyl)-1,4,7,10-tetraazacyclododecane-1,4,7-triyl)triacetic acid] | – | – | – | – | 36% | 6.6 mM⁻¹ s⁻¹ | 18.4 mM⁻¹ s⁻¹ | 6.4 mM⁻¹ s⁻¹ | 11.4 mM⁻¹ s⁻¹ | –
CC(O)CN1CCN(CC(=O)O)CCN(CC(=O)O)CCN(CC(=O)O)CC1 (centres unmarked) [HP-DO3A] | 0.22^6 | 0.19^6 | 0.16^5,6 | 0.07^5,6 | – | – | – | – | – | Time to 80% r1 (min) [3]: inert^11
C[C@@H](NC(=O)C(CN1CCN(CC(=O)O)CCN(CC(=O)O)CCN(CC(=O)O)CC1)NC(=O)C(N)Cc1cc(I)c(O)c(I)c1)c1ccccc1 (stereo partly drawn) [Gd (13-S), 2,2′,2″-(10-(2-(2-amino-3-(4-hydroxy-3,5-diiodophenyl)propanamido)-3-oxo-3-(((R)-1-phenylethyl)amino)propyl)-1,4,7,10-tetraazacyclododecane-1,4,7-triyl)triacetic acid] | – | – | – | – | 39% | 7.1 mM⁻¹ s⁻¹ | 18.5 mM⁻¹ s⁻¹ | 6.1 mM⁻¹ s⁻¹ | 10.9 mM⁻¹ s⁻¹ | –
Gd(DO3A-N-α-aminopropionate) [F] | – | – | – | – | – | – | – | – | – | ΔH^‡ ([10]; activation enthalpy of water exchange): 4.57 kcal/mol; ^310kex × 10^6 (s^−1) ([10]; water exchange rate at 310 K): 42 × 10^6 s^−1; ^310 TM (ns) ([10]; water residency time at 310 K (37° C.)): 24 ns
